From patent US6753348B2, “BTK inhibitors and methods for their identification and use” (Parker Hughes Institute, priority 1998, dated 2004)

Experiments:
RBL-2H3 rat mast cells = assay: IgE/FcεRI receptor mediated leukotriene C4 release, RBL-2H3 mast cells; assay type: cell-based; conditions: RBL-2H3, IgE/DNP-BSA challenge, 30 min pre-incubation, 1-100 μM, N = 3-4, read-out: EC50 (mean ± SEM), inhibition of leukotriene C4 release
Method: Mast Cell Cultures. RBL-2H3 mast cells were a gift from Dr. Reuben P. Siraganian (Laboratory of Microbiology and Immunology, National Institute of Dental Research, National Institute of Health). The cells were maintained as monolayer cultures in 75- or 150-cm^2 flask in Eagle's essential medium supplemented with 20% fetal calf serum. Human fetal livers (16 to 21 weeks of gestational age) were obtained from prostaglandin-induced human abortuses. Subsequently, single cell suspensions were prepared and mononuclear cells were isolated by centrifugation on Ficoll-Hypaque gradients as described (Malaviya, R., et al., (1999) J Biol Chem, 274, 27028-27038). Isolated cells were cultured for 8 weeks in the presence of 100 ng/ml rhSCF, 2 ng/ml rhIL-4 (Malaviya, R., et al., (1999) J Biol Chem, 274, 27028-27038; Xia, H. Z., et al., (1997) J Immunol, 159, 2911-2921). Culture medium was replaced with fresh medium once a week for the first 2 weeks and twice a week thereafter. All human tissue specimens were used following the guidelines of the Parker Hughes Institute Institutional Review Board on the Use of Human Subjects in Research for secondary use of pathologic or surgical tissue. At the end of the 8 weeks the fetal liver derived human mast cell culture contained 70-90 percent mast cells, based on toluidine blue and tryptase staining (Xia, H. Z., et al., (1997) J Immunol, 159, 2911-2921).
Stimulation of Mast Cells. RBL-2H3 rat mast were sensitized with monoclonal anti-DNP IgE antibody (0.24 mg/ml) for 1 h at 37° C. in a 48-well tissue culture plate. Unbound IgE was removed by washing the cells with PIPES-buffered saline. After washing, PIPES-buffered saline containing 1 mM calcium chloride was added to the monolayers of the RBL-2H3 cells. The cells were challenged with 20 ng/ml DNP-BSA for 30 min at 37° C. The plate was centrifuged at 200 g for 10 min at 4° C. Supernatants were removed and saved. Fetal liver-derived human mast cells were resuspended in culture medium at a cell density of 5×10^6/ml and sensitized with human IgE (150 μg/ml) for 3 h at 4° C. After sensitization the cells were washed with tyrode buffer containing 1 mM calcium and 1 mM magnesium and challenged with mouse monoclonal anti-human IgE (40 μg/ml) for 30 min at 37° C. To study the effect of test drugs, RBL-2H3 rat mast cells or human mast cells were incubated with the drugs at the indicated concentrations or vehicle for 30 min prior to antigen challenge.
Mediator Release Assay. Leukotriene C4 levels were estimated in cell free supernatants of mast cells by immunoassay (Malaviya, R. and Abraham, S. N., (1995) Methods Enzymol, 253, 27-43).
Mast cells release large amounts of leukotrienes upon IgE receptor ligation. Because of the reported ability of LFM as a mast cell inhibitor, we utilized 13 analogues of LFM (Table 1) and examined their effect on IgE/FcεERI receptor mediated mast cell leukotriene C4 release. RBL-2H3 cells, a mucosal mast cell line, were treated with 5 different concentrations of the compounds ranging from 1 μM to 100 μM or vehicle for 30 min before challenge with antigen (DNP-BSA) at 37° C. Leukotriene C4 release was quantitated in the extracellular medium employing a previously described ELISA (Malaviya, R. and Abraham, S. N., (1995) Methods Enzymol, 253, 27-43).

BTK = BTK (Mus musculus, UniProt P35991); assay: BTK inhibition assay of benzopyran derivatives; assay type: biochemical; conditions: for IC50: BTK inhibitory activity; for BTK inhibitory activity in words: kinase assays
NALM-6 cells = assay: Apoptosis induction, TUNNEL and flow cytometric assay; assay type: cell-based, human; conditions: compound alone, 100 μM
human leukemia cells = assay: Ceramide or vincristine sensitivity of human leukemia cells; assay type: cell-based; conditions: co-administration with chemotherapeutic agent
Description: FIG. 23: Effects of DDE-11 on ceramide or vincristine—sensitivity of human leukemia cells. Studies were done as described above for FIG. 17, but using DDE 11 as the BTK inhibitor.

Sequence of BTK (P35991 whole entry): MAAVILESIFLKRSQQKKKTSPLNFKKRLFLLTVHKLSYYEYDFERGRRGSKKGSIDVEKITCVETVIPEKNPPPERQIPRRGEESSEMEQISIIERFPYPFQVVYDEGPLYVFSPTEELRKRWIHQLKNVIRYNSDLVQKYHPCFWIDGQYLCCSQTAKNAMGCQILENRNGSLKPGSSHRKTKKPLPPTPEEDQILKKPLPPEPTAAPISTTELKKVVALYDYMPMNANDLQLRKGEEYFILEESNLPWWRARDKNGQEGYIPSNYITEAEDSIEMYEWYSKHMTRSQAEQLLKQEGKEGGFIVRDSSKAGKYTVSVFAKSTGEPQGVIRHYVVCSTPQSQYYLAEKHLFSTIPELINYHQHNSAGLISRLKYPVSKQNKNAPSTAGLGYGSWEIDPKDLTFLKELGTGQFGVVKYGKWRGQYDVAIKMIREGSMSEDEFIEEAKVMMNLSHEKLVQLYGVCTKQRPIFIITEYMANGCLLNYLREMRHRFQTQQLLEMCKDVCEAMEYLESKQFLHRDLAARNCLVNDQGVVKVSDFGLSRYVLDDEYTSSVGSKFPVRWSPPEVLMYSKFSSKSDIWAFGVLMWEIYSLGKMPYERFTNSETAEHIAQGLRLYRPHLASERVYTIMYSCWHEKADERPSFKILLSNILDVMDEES

EC50 (RBL-2H3 rat mast cells) [µM]	melting point [°C]	IC50 (BTK) [µM]	SMILES	other results
–	–	> 329	CCCc1cc(=O)oc2c(C(=O)CC)c(OC)cc(OC)c12 [DDE229]	–
–	–	> 308	CCCc1cc(=O)oc2c(C(=O)c3ccccc3)c(O)cc(O)c12 [DDE355]	–
–	–	< 40.3	CCCc1cc(=O)oc2c(C=O)c(O)cc(O)c12 [DDE213, 5,7-Dihydroxy-8-carboxaldehyde-4-propyl-2H-1-benzopyran-2-one]	BTK inhibitory activity in words (BTK): potent BTK inhibitors
–	–	< 48.5	CCc1cc(=O)oc2cc(O)cc(O)c12 [DDE214, 5,7-Dihydroxy-4-ethyl-2H-1-benzopyran-2-one]	BTK inhibitory activity in words (BTK): potent BTK inhibitors
–	–	> 381	CCCc1cc(=O)oc2c(C(C)=O)c(O)cc(O)c12 [DDE271, 5,7-Dihydroxy-8-acetyl-4-propyl-2H-1-benzopyran-2-one]	–
–	–	< 36.2	CCCc1cc(=O)oc2c(C(=O)CC)c(O)cc(O)c12 [DDE11, 5,7-Dihydroxy-8-propanoyl-4-propyl-2H-1-benzopyran-2-one]	apoptosis induction (NALM-6 cells): induces apoptosis; cytotoxicity of C2-CER and vincristine on co-administration (human leukemia cells): increaseed the cytotoxicity; BTK inhibitory activity in words (BTK): potent BTK inhibitors
–	–	98.3	O=c1cc(-c2ccccc2)c2c(O)cc(O)cc2o1 [DDE270, 5,7-Dihydroxy-4-phenyl-2H-1-benzopyran-2-one]	–
–	–	> 344	CCCc1cc(=O)oc2c(C(=O)C(C)C)c(O)cc(O)c12 [DDE272]	–

More lines, now with the values behind:

SMILES	EC50 (RBL-2H3 rat mast cells) [µM]	melting point [°C]	IC50 (BTK) [µM]	other results
CC(O)=C(C#N)C(=O)Nc1cccc(Br)c1 [LFM-A9, α-Cyano-β-hydroxy-β-methyl-N-(3-bromophenyl)propenamide]	> 100	184 to 185	–	–
CC(O)=C(C#N)C(=O)Nc1ccccc1 [LFM-A14, α-Cyano-β-hydroxy-β-methyl-N-(phenyl)propenamide]	> 100	134 to 135	–	–
C/C(O)=C(\C#N)C(=O)Nc1ccc(Cl)cc1Cl [LFM-A20, α-Cyano-β-hydroxy-β-methyl-N-(2,4-dichlorophenyl)-propenamide]	–	143 to 144	–	–
CC(O)=C(C#N)C(=O)Nc1cccc(F)c1 [LFM-A11, α-Cyano-β-hydroxy-β-methyl-N-(3-fluorophenyl)propenamide]	> 100	136 to 138	–	–
CC(O)=C(C#N)C(=O)Nc1ccccc1C(F)(F)F [LFM-A4, α-Cyano-β-hydroxy-β-methyl-N-[2-(trifluoromethyl)phenyl]-propenamide]	> 100	61 to 63	–	–
CC(O)=C(C#N)C(=O)Nc1cccc(Cl)c1 [LFM-A10, α-Cyano-β-hydroxy-β-methyl-N-(3-chlorophenyl)propenamide]	51 ± 12	184 to 187	–	–
CC(O)=C(C#N)C(=O)Nc1ccccc1F [LFM-A7, α-Cyano-β-hydroxy-β-methyl-N-(2-fluorophenyl)propenamide]	> 100	118 to 119	–	–
CC(O)=C(C#N)C(=O)Nc1ccc(F)cc1 [LFM-A3, α-Cyano-β-hydroxy-β-methyl-N-(4-fluorophenyl)propenamide]	> 100	165 to 166	–	–
CC(O)=C(C#N)C(=O)Nc1ccc(OC(F)(F)F)cc1 [LFM-A12, α-Cyano-β-hydroxy-β-methyl-N-[4-(trifluoromethoxy)phenyl]-propenamide]	30 ± 5.6	182 to 183	–	–
CC(O)=C(C#N)C(=O)Nc1ccc(C(F)(F)F)cc1 [LFM, α-Cyano-β-hydroxy-β-methyl-N-[4-(trifluoromethyl)phenyl]-propenamide, reference compound]	34 ± 14.5	–	–	–
CC(O)=C(C#N)C(=O)Nc1ccccc1Cl [LFM-A6, α-Cyano-β-hydroxy-β-methyl-N-(2-chlorophenyl)propenamide]	> 100	93 to 94	–	–
C/C(O)=C(\C#N)C(=O)Nc1ccc(S(C)(=O)=O)cc1 [LFM-A15, α-Cyano-β-hydroxy-β-methyl-N-[4-(methylsulfonyl)phenyl]-propenamide]	–	205 to 206	–	–
C/C(O)=C(\C#N)C(=O)Nc1cc(Cl)ccc1Cl [LFM-A18, α-Cyano-β-hydroxy-β-methyl-N-(2,5-dichlorophenyl)-propenamide]	–	143 to 144	–	–
CC(O)=C(C#N)C(=O)Nc1ccc(Cl)cc1 [LFM-A2, α-Cyano-β-hydroxy-β-methyl-N-(4-chlorophenyl)propenamide]	58 ± 13	209 to 211	–	–
CCCc1cc(=O)oc2cc(O)cc(O)c12 [DDE181, 5,7-Dihydroxy-4 propyl-2H-1-benzopyran-2-one]	–	–	< 45.4	BTK inhibitory activity in words (BTK): potent BTK inhibitors
CC(O)=C(C#N)C(=O)Nc1ccccc1Br [LFM-A5, α-Cyano-β-hydroxy-β-methyl-N-(2-bromophenyl)propenamide]	46 ± 10	98 to 100	–	–
C/C(O)=C(\C#N)C(=O)Nc1ccc(OC(F)(F)F)c(Br)c1 [LFM-A17, α-Cyano-β-hydroxy-β-methyl-N-[3-bromo-4-(trifluoromethoxy)-phenyl]propenamide]	–	178 to 179	–	–
CC(O)=C(C#N)C(=O)Nc1ccc(Br)cc1 [LFM-A1, α-Cyano-β-hydroxy-β-methyl-N-(4-bromophenyl)propenamide]	64 ± 13.9	213 to 214	–	–
C/C(O)=C(\C#N)C(=O)Nc1cccc(S(C)(=O)=O)c1 [LFM-A16]	–	213 to 214	–	–
C/C(O)=C(\C#N)C(=O)Nc1ccc(Br)cc1Br [LFM-A19, α-Cyano-β-hydroxy-β-methyl-N-(2,4-dibromophenyl)-propenamide]	–	181	–	–
